Measurements taken from ChEMBL document CHEMBL3045295, “Antifeedant triterpenoids from the seeds and bark of Lansium domesticum cv Kokossan (Meliaceae)” (2011).

Tested on: Henosepilachna vigintioctopunctata
Assay: Antifeedant activity against fourth-instar larvae of Henosepilachna vigintioctopunctata on Solanum nigrum leaves at 1 % relative to control
Type: functional

SMILES	AFI [%]
COC(=O)[C@@H]1O[C@]23O[C@H]4CC[C@]5(C)C(=CC(=O)O[C@H]5c5ccoc5)[C@H]4C[C@]2(O)C(=O)C(C)(C)[C@H]1[C@@H]3C [KOKOSANOLIDE A]	78
COC(=O)[C@@H]1O[C@]23O[C@H]4CC[C@]5(C)C(=CC(=O)O[C@H]5c5ccoc5)[C@H]4C[C@]2(O)CC(C)(C)[C@H]1[C@@H]3C [KOKOSANOLIDE C]	0
C=C1CC[C@H]2C(C)(C)C(=O)CC[C@]2(C)[C@H]1CC[C@H]1C(C)=CC[C@H]2C(C)(C)C(=O)CC[C@]12C	56
CC1=CC[C@H]2C(C)(C)C(=O)CC[C@]2(C)[C@H]1CC[C@H]1C(C)(O)CC[C@H]2C(C)(C)C(=O)CC[C@]12C (stereo not given in full) [Kokosanolide B]	99
CC1=CC[C@H]2C(C)(C)C(=O)CC[C@]2(C)[C@H]1CC[C@H]1C(C)=CC[C@H]2C(C)(C)C(=O)CC[C@]12C	85
